Laboratory results reported in PubChem BioAssay (NCI).
Several values for one entry are separate records, joined by “and”; a condition that tells them apart may be missing. Equal entries are not always repeated.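 All cell lines were grown in 96-well plates and treated with compound for 48 hours. GI50 marks 50% less growth. The concentration for full growth arrest is given as TGI.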

Legend:
Assay in all cases: NCI anticancer screen, dose series, 48 h
786-0 renal = tested on: 786-0 renal
HOP-62 NSCLC = tested on: HOP-62 NSCLC
HS 578T breast = tested on: HS 578T breast
M14 melanoma = tested on: M14 melanoma
OVCAR-8 ovarian = tested on: OVCAR-8 ovarian
PC-3 prostate = tested on: PC-3 prostate
SF-295 CNS = tested on: SF-295 CNS
SK-MEL-2 melanoma = tested on: SK-MEL-2 melanoma
SNB-19 CNS = tested on: SNB-19 CNS
SNB-75 CNS = tested on: SNB-75 CNS

Compound	GI50 (786-0 renal) [µM]	TGI (786-0 renal)	GI50 (HOP-62 NSCLC) [µM]	TGI (HOP-62 NSCLC)	GI50 (HS 578T breast) [µM]	TGI (HS 578T breast) [µM]	GI50 (M14 melanoma) [µM]	TGI (M14 melanoma)	GI50 (OVCAR-8 ovarian) [µM]	TGI (OVCAR-8 ovarian)	GI50 (PC-3 prostate) [µM]	TGI (PC-3 prostate)	GI50 (SF-295 CNS) [µM]	TGI (SF-295 CNS)	GI50 (SK-MEL-2 melanoma) [µM]	TGI (SK-MEL-2 melanoma)	GI50 (SNB-19 CNS) [µM]	TGI (SNB-19 CNS) [µM]	GI50 (SNB-75 CNS) [µM]	TGI (SNB-75 CNS)
NCCSC(C[N+](=O)[O-])c1ccccc1Cl (stereo not drawn)	2.16	4.33 µM	8.09	23.1 µM	2.46	7.63	2.14	6.01 µM	6.43	23.8 µM	4.19	> 32.7 µM	1.5	3.83 µM	21.9	51.5 µM	3.38	11.5	4.22	16.9 µM
O=C1/C(=C\c2ccccc2)c2ccccc2N1/N=C\c1ccccc1	–	> 100 µM	–	> 100 µM	–	–	–	> 100 µM	–	> 100 µM	–	–	–	> 100 µM	–	> 100 µM	–	> 100	–	> 100 µM
COc1cc(-c2oc3c(OC)c(O)cc(O)c3c(=O)c2OC)ccc1O	–	> 100 µM	–	–	–	6.83	–	> 31.3 µM	–	> 100 µM	–	> 74.9 µM	–	76.2 µM	–	15.3 µM	–	> 100	–	27.1 µM
CNC(=O)c1cncc(/C=C/c2c(Cl)cccc2Cl)c1	> 25	> 25 µM	> 25	> 25 µM	7.17	> 21.6	> 23.4	> 25 µM	> 25	> 25 µM	> 21.6	> 25 µM	> 12.8	> 25 µM	–	–	> 22.4	> 25	2.89	> 16.1 µM
Cc1ccc(Nc2nc(C)c(C(/C=C/c3ccc4c(c3)OCO4)=N/Nc3ccc([N+](=O)[O-])cc3[N+](=O)[O-])s2)c([N+](=O)[O-])c1	–	> 100 µM	–	> 100 µM	–	–	–	> 100 µM	–	> 100 µM	–	–	–	> 100 µM	–	> 100 µM	–	> 100	–	> 100 µM
Cc1cccc(N=C2NC(=O)C(CC(=O)Nc3ccccc3Cl)S2)c1 (stereo not drawn)	–	> 100 µM	–	–	–	–	–	> 100 µM	–	> 100 µM	–	–	–	> 100 µM	–	> 100 µM	–	> 100	–	> 100 µM
O=c1[nH]cnc2c1ncn2CCCCO	–	> 100 µM	–	> 100 µM	–	–	–	> 100 µM	–	> 100 µM	–	–	–	> 100 µM	–	–	–	> 100	–	> 100 µM
CCCCCCCCCCCCCCCCCc1nnc(N)o1	–	> 100 µM	–	> 100 µM	–	–	–	> 100 µM	–	> 100 µM	–	–	–	> 100 µM	–	> 100 µM	–	> 100	–	> 100 µM
O=c1cc(-c2ccc(O)cc2)oc2cc(O)cc(O)c12	–	> 100 µM	–	> 100 µM	–	–	–	> 100 µM	–	–	–	–	–	83.4 µM	–	80.3 µM	–	> 100	–	43.7 µM
O=c1[nH]c2c(c3ccccc13)CCc1ccccc1-2	–	> 100 µM	–	–	–	–	–	–	–	> 100 µM	–	–	–	> 100 µM	–	> 100 µM	–	> 100	–	> 100 µM
Cc1cc(Cl)ccc1Nc1nc(C(F)(F)F)ccc1C(=O)Nc1cccc(C(F)(F)F)c1	3.61	12.9 µM	2.6	11.9 µM	3.95	20.2	–	–	4.32	22.7 µM	3.63	15.5 µM	3.24	13.3 µM	3.23	13.3 µM	4.45	15.8	3.41	11.5 µM
O=C1C=C(OCCCl)C(=O)c2c(O)ccc(O)c21	2.52	3.22 µM and 6.75 µM	1.97	1.52 µM and 3.39 µM	–	–	0.741	0.32 µM and 2.19 µM	1.59	5.08 µM and 3.03 µM	2.67	4.32 µM and 10.1 µM	2.44	3 µM and 4.53 µM	2.1	1.4 µM and 4.39 µM	–	2.56	2.1	0.97 µM and 3.74 µM
O=C(CC(=O)c1ccccc1)C(=O)NC12CC3CC(CC(C3)C1)C2	–	99.7 µM	–	> 100 µM	–	–	–	> 100 µM	–	> 100 µM	–	–	–	> 100 µM	–	> 100 µM	–	> 100	–	> 100 µM
NS(=O)(=O)c1ccc(NC(=O)c2cccc3c(Nc4ccc(S(N)(=O)=O)cc4)c4ccccc4nc23)cc1	–	> 100 µM	–	> 100 µM	–	–	–	> 100 µM	–	> 100 µM	–	–	–	> 100 µM	–	82.3 µM	–	> 100	–	> 100 µM
O=S(=O)(N/N=C/c1ccc(Cl)cc1Cl)c1ccccc1	–	> 100 µM	–	> 100 µM	–	–	–	> 100 µM	–	> 100 µM	–	–	–	> 100 µM	–	> 100 µM	–	–	–	> 100 µM
O=C1NC(c2ccccc2)N=C2Oc3ccccc3C=C12 (stereo not drawn)	–	> 39 µM	–	> 66.7 µM	–	7.06	–	> 31.6 µM	–	> 100 µM	–	> 100 µM	–	> 100 µM	–	> 100 µM	–	> 100	–	–
COC(=O)c1nc(N)nc(C(=O)OC)c1C(=O)c1ccccc1	–	> 100 µM	–	–	–	–	–	> 100 µM	–	> 100 µM	–	–	–	> 100 µM	–	> 100 µM	–	> 100	–	> 100 µM
CCOC(=O)/C=C1\Oc2ccccc2C1(C)O (stereo not drawn)	–	> 100 µM	–	> 100 µM	–	–	–	> 100 µM	–	> 100 µM	–	–	–	> 100 µM	–	> 100 µM	–	> 100	–	> 100 µM
C=C(C)C(=O)O[C@H]1CC2=CC(CC(C)=C[C@H]3OC(=O)C(=C)C13)OC2=O (stereo partly drawn)	–	24.4 µM	–	–	–	> 100	–	> 100 µM	–	> 100 µM	–	53.5 µM	–	> 100 µM	–	72.4 µM	–	> 100	–	> 100 µM
CC(=O)O[C@H]1CC[C@@]2(C)C(=C/C(=N\[N+](=O)[O-])[C@H]3C4CCC([C@H](C)CCCC(C)C)[C@@]4(C)CCC32)C1 (stereo partly drawn)	–	> 100 µM	–	> 100 µM	–	–	–	> 100 µM	–	> 100 µM	–	–	–	> 100 µM	–	> 100 µM	–	> 100	–	> 100 µM
CCc1c2c(nc3ccc(OCc4ccc(B5OC(C)(C)C(C)(C)O5)cc4)cc13)-c1cc3c(c(=O)n1C2)COC(=O)[C@]3(O)CC	0.02	0.0691 µM	< 0.01	–	1.11	> 100	0.0141	–	0.0296	> 100 µM	0.146	> 100 µM	–	–	0.825	> 24.6 µM	< 0.01	> 100	0.0183	0.296 µM
